These results are taken from patent publication US10227373B2 (priority 2014, dated 2019).

One series has as its system NOV. Kind of series: microbe, parasite or virus in culture. It is filed as cell-based. The conditions noted are these: Norovirus, HG23.
Series [1] has as its system Dengue. Kind of series: microbe, parasite or virus in culture. The series is classed as cell-based.
The subject of series [2] is Vaccinia. Kind of series: microbe, parasite or virus in culture. It is filed as cell-based, vaccinia virus.
For another series, the system named is Ebola (Zaire). Kind of series: microbe, parasite or virus in culture. The series is classed as cell-based. Conditions: Zaire ebolavirus, Vero.
Series [3] is described as follows: in vitro. The conditions noted are these: human.
In a further series the test system is HCMV. The experiment in a line: microbe, parasite or virus in culture. The series is classed as cell-based, human cytomegalovirus. The conditions noted are these: Human betaherpesvirus 5, HFF.
The subject of a further series is Measles. Kind of series: microbe, parasite or virus in culture. The conditions noted are these: Measles morbillivirus, Vero 76. It is filed as cell-based.
In another series the test system is HBV. The experiment in a line: microbe, parasite or virus in culture. The series is classed as cell-based, hepatitis B virus.
Series [4] in a line: in vitro. The conditions noted are these: African green monkey.
A short description of series [5]: in vitro. The conditions noted are these: human. This is another data set of the same source.
The test system of series [6] is Dengue.
Series [7] has as its system Vaccinia.
Series [8] has as its target S-adenosylhomocysteine hydrolase (SAHase) (Oryctolagus cuniculus, UniProt A0A5F9DS62). The experiment in a line: SAHase inhibition (release of free homocysteine). It is filed as biochemical. The conditions noted are these: SAHase from rabbit erythrocytes; read-out: IC50 versus SAHase.
Series [9] has as its system Ebola virus.
A short description of series [10]: in vitro. Conditions: human. This is another data set of the same source.
Series [11] concerns Ebola virus. The experiment in a line: microbe, parasite or virus in culture. The conditions noted are these: Zaire ebolavirus, read-out: EC50 (IC50).
The next series concerns measles virus. The experiment in a line: microbe, parasite or virus in culture. The series is classed as cell-based. The conditions noted are these: Measles morbillivirus, Vero 76, read-out: drug concentration to reduce viral replication (EC50).
A short description of series [12]: in vitro. The conditions noted are these: human. The source holds these as a separate data set.

The structures appear in SMILES notation. Values joined by “and” are separate entries in the source; they are usually repeats but may differ in a detail not shown here. Identical values can stand only once. Like-named read-outs stand apart in the source and are kept apart here. Marks after values point to notes of the source that are not given here.

Chain of S-adenosylhomocysteine hydrolase (SAHase) (A0A5F9DS62 1-428): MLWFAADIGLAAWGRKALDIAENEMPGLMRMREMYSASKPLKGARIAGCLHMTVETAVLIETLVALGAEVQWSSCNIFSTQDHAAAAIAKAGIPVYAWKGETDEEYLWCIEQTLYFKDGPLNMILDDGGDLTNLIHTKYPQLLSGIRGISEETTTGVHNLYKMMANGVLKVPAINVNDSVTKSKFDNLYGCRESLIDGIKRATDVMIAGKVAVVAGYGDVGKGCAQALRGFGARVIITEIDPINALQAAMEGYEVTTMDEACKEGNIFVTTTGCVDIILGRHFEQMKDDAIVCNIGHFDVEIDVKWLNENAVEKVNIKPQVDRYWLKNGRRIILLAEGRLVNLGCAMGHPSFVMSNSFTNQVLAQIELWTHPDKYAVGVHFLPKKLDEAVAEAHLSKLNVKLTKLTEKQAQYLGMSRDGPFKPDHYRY

One may read the EC90 as the point of the concentration-response curve where the effect stands at 90%. For `Nc1ncnc2c1ncn2C1=C[C@H](CO)[C@@H](O)[C@H]1O` [“D”-Isoneplanocin, (1R,2S,5R)-3-(6-Amino-9H-purin-9-yl)-5-(hydroxymethyl)cyclopent-3-ene-1,2-diol], the EC50 with NOV came out at 0.784 µM; with Dengue [1], 1.5 µM; in the series on Dengue [1] (Dengue virus, Vero 76), 1.1 µM; with Vaccinia [2] (Orthopoxvirus vaccinia, HFF) it was 10.1 µM; in the series with Ebola (Zaire) it was 0.38 µM; with HCMV it was 0.11 µM. The EC50 with Measles was < 0.38 µM; with HBV (Hepatitis B virus), 7.2 µM. The EC90 in the series with NOV was 8.88 µM; in the series on Vaccinia [2] (Orthopoxvirus vaccinia, HFF), > 300 µM; in the series on HCMV it was > 12 µM; with HBV (Hepatitis B virus), 35 µM. Also, the CC50 is > 100 µM in the series “in vitro [3]”, 1.3 µM in “in vitro [4]” and > 100 µM in the series “in vitro [5]”.

Take `Nc1ncc(Br)c2c1ncn2[C@@H]1C[C@H](CO)[C@@H](O)[C@H]1O` [3-Bromo-3-deazaaristeromycin]: the CC50 in the series with MDCK cells was > 290 µM. In addition, the EC50 with Influenza B is 0.84 µM; in the series with Flu A (H3N2) it was > 290 µM; with Flu A (H1N1) it was > 290 µM; with Flu A (H5N1), 1.14 µM. For the same compound, the “SI (CC50/EC50)” value is listed as >340 with Influenza B; 0 in the series with Flu A (H3N2); 7.9 in the series with Tacaribe; 2 in the series on Dengue [6]; 5 with Rift Valley Fever; 0 in the series with Flu A (H1N1). The “SI (CC50/EC50)” value is given as >1.3 with Vaccinia [7] and >260 with Flu A (H5N1).

Broadly, the IC50 is the concentration at which inhibition is half-maximal. As for `Nc1ncc(Br)c2c1ncn2[C@@H]1C=C(CO)[C@@H](O)[C@H]1O` [3-Bromo-3-deazaneplanocin], the “MCC (minimum concentration causing microscopically detectable alteration of normal cell morphology)” value in the series with Vero cells is >100^d. Moreover, the CC50 in the series on CRFK cells is 94^b; in the series on Akata cells, 0.13^b. For the same compound, the IC50 in [8] turned out to be 0.0027 µM. In addition, the “SI (CC50/EC50)” value with Junin is 160; in the series with Influenza B, <7; with Pichinde, 24; with Flu A (H3N2), >190; in the series with Tacaribe, >2000; with Epstein Barr, <4.3. The “SI (CC50/EC50)” value in the series on Punta Toro is given as 140; in the series with Dengue [6], 57; with Rift Valley Fever, 250; in the series with Feline herpes, 470; with Flu A (H1N1) it was >2345; in the series on Flu A (H5N1), >310. Further, the EC50 was > 0.16 µM with Influenza B; 1.55 µM in the series on Flu A (H3N2); 0.009 µM in the series on Marburg; 3.3 µM with Ebola; < 0.094 µM in the series on Flu A (H1N1); 0.94 µM with Flu A (H5N1). Moreover, the CC50/EC50 stood at 1100 in the series with Marburg and 3 in the series on Ebola.

As for `Nc1nccc2c1ncn2[C@@H]1C[C@@H](CO)[C@H](O)[C@@H]1O` [carbocyclic 3-deazaadenosine, reference compound], the “EC90 (IC90; concentration inhibiting viral replication by 90%)” value in the series with Ebola virus [9] is > 126.5 µM and 240.3 µM.

For the compound `Nc1nccc2c1ncn2C1=C[C@@H](CO)[C@H](O)[C@@H]1O` [“L”-3-Deazaisoneplanocin, L-1′,6′-iso-3-deazaneplanocin], the CC50 in the series “in vitro [10]” is > 100 µM. In the series on Ebola virus [9], the CC50/EC50 is >313 µM and the “EC90 (IC90; concentration inhibiting viral replication by 90%)” value was < 0.32 µM. In addition, the EC50 in the series with Ebola virus [11] is < 0.32 µM.

Take `Nc1nccc2c1ncn2C1=C[C@H](CO)[C@@H](O)[C@H]1O` [“D”-3-Deazaisoneplanocin, D-1′,6′-iso-3-deazaneplanocin]: in the series “in vitro [10]”, the CC50 was > 100 µM. Also, the EC50 in the series with measles virus is < 0.1 µg/mL. In the series with Ebola virus [9], the CC50/EC50 was >313 µM and the “EC90 (IC90; concentration inhibiting viral replication by 90%)” value was 74.1 µM. Further, the EC50 in the series on Ebola virus [11] was < 0.32 µM.

For `Nc1ncnc2c1ncn2C1=C[C@@H](CO)[C@H](O)[C@@H]1O` [“L”-Isoneplanocin, (1S,2R,5S)-3-(6-Amino-9H-purin-9-yl)-5-(hydroxymethyl)cyclopent-3-ene-1,2-diol], the EC50 in the series with NOV is 11 µM; with Dengue [1], 5.7 µM; in the series on Dengue [1] (Dengue virus, Vero 76) it was 6.1 µM; in the series on Ebola (Zaire), 0.76 µM; in the series with HCMV it was 3.7 µM; with Measles it was 0.72 µM. The EC90 in the series with NOV turned out to be 89 µM; in the series with HCMV, 6.86 µM. In addition, the Antiviral activity entry with Vaccinia [2] and in the series on HBV was “inactive” throughout. For the same compound, the CC50 is > 300 µM in the series “in vitro [12]”, > 300 µM in “in vitro [3]” and 11.4 µM in “in vitro [4]”.
